Here are results for 26 compounds from BindingDB's records for patent US12404295 (Idorsia Pharmaceuticals, 2025).

Galectin-3, sequence (P17931 whole entry): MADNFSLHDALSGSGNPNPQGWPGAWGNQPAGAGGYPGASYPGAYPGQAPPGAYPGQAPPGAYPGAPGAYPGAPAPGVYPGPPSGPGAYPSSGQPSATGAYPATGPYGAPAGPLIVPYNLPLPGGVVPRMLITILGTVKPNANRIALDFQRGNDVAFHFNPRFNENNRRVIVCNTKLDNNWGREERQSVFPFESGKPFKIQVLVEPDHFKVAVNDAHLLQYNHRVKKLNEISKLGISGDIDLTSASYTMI

In the assay the target is Galectin-3 (Homo sapiens, UniProt P17931). The assay can be described thus: Competitive Binding Assay. The method, then:
The inhibitory activity of compounds is determined in competitive binding assays. This spectrophotometric assay measures the binding of biotinylated human Gal-3 (hGal-3) or human Gal-1 (hGal-1), respectively, to a microplate-adsorbed glycoprotein, asialofetuin (ASF).Briefly, compounds are serially diluted in DMSO (working dilutions). […] Finally, 25 μL/well of ABTS substrate is added.
For orientation: IC50 means the concentration that inhibits the measured activity by half. In turn, `CC1(C)CC(O)(C(S[C@@H]2O[C@H](CO)[C@H](O)[C@H](n3cc(-c4cc(F)c(F)c(F)c4)nn3)[C@H]2O)c2ccccc2C(F)(F)F)CCO1` (stereo partly specified) [US12404295, Example 2.43.102.] came in with a concentration for half-maximal inhibition (IC50) of 120 nM.
The value for `CO[C@@H]1[C@@H](n2cc(-c3cc(F)c(F)c(F)c3)nn2)[C@@H](O)[C@@H](CO)O[C@H]1SC(c1ncccc1C)C1(O)CCOC(C)(C)C1` (stereo partly specified) [US12404295, Example 2.43.126.I.] was 160 nM.
Next, `CC1(C)C[C@](O)([C@@H](S[C@@H]2O[C@H](CO)[C@H](O)[C@H](n3cc(-c4cc(F)c(F)c(F)c4)nn3)[C@H]2O)c2ccccc2C(F)(F)F)CCO1` [US12404295, Example 2.43.102SS.]: 3920 nM.
`CC1(C)C[C@@](O)([C@@H](S[C@@H]2O[C@H](CO)[C@H](O)[C@H](n3cc(-c4cc(F)c(F)c(F)c4)nn3)[C@H]2O)c2ccccc2C(F)(F)F)CCO1` [US12404295, Example 2.43.102SR.] yielded an IC50 of 3900 nM.
`CC1(C)CC(O)([C@H](S[C@@H]2O[C@H](CO)[C@H](O)[C@H](n3cc(-c4cc(F)c(F)c(F)c4)nn3)[C@H]2O)c2ccccc2C(F)(F)F)CC(C)(C)O1` [US12404295, Example 2.42.102R.] returned an IC50 of 90 nM.
`CC1(C)C[C@@](O)([C@H](S[C@@H]2O[C@H](CO)[C@H](O)[C@H](n3cc(-c4cc(F)c(F)c(F)c4)nn3)[C@H]2O)c2ccccc2C(F)(F)F)CCO1` [US12404295, Example 2.43.102RR.]: the IC50 was determined as 290 nM.
As for `OC[C@H]1O[C@@H](S[C@@H](c2cccc(Cl)c2Cl)C2(O)CCC(F)(F)CC2)[C@H](O)[C@@H](n2cc(-c3cc(F)c(F)c(F)c3)nn2)[C@H]1O` [US12404295, Example 2.44.113S.], the IC50 stood at 57500 nM. Compared with the last compound, the IC50 is about 200-fold higher.
For the compound `OC[C@H]1O[C@@H](S[C@H](c2ccccc2C2CC2)C2(O)CCC(F)(F)CC2)[C@H](O)[C@@H](n2cc(-c3cc(F)c(F)c(F)c3)nn2)[C@H]1O` [US12404295, Example 2.44.106R.*], the IC50 turned out to be 60 nM.
`OC[C@H]1O[C@@H](S[C@@H](c2ncccc2C(F)(F)F)C2(O)CC(F)(F)C2)[C@H](O)[C@@H](n2cc(-c3cc(F)c(F)c(F)c3)nn2)[C@H]1O` [US12404295, Example 2.35.125S.]: the IC50 came to 3000 nM.
The value for `CC1(C)CC(O)(C(S[C@@H]2O[C@H](CO)[C@H](O)[C@H](n3cc(-c4cc(F)c(F)c(F)c4)nn3)[C@H]2O)c2ccccc2C(F)(F)F)CC(C)(C)O1` (stereo partly specified) [US12404295, Example 2.42.102.] was 380 nM.
On to `OC[C@H]1O[C@@H](S[C@@H](c2ccccc2C2CC2)C2(O)CCC(F)(F)CC2)[C@H](O)[C@@H](n2cc(-c3cc(F)c(F)c(F)c3)nn2)[C@H]1O` [US12404295, Example 2.44.106S.*], for which the IC50 was determined as 930 nM.
In turn, `OC[C@H]1O[C@@H](SC(c2ncccc2C(F)(F)F)C2(O)CC(F)(F)C2)[C@H](O)[C@@H](n2cc(-c3cc(F)c(F)c(F)c3)nn2)[C@H]1O` (stereo partly specified) [US12404295, Example 2.35.125.] yielded an IC50 of 320 nM. Against the preceding compound, the IC50 is about 2.9-fold lower.
Next, `Cc1ccccc1[C@H](S[C@@H]1O[C@H](CO)[C@H](O)[C@H](n2cc(-c3cc(F)c(F)c(F)c3)nn2)[C@H]1O)[C@@]1(O)CCOC(C)(C)C1` [US12404295, Example 2.43.112SR.]: 4900 nM; `OC[C@H]1O[C@@H](S[C@H](c2ncccc2C(F)(F)F)C2(O)CC(F)(F)C2)[C@H](O)[C@@H](n2cc(-c3cc(F)c(F)c(F)c3)nn2)[C@H]1O` [US12404295, Example 2.35.125R.]: 100 nM.
Next, `CC(C)Cc1c(C(S[C@@H]2O[C@H](CO)[C@H](O)[C@H](n3cc(-c4cc(F)c(F)c(F)c4)nn3)[C@H]2O)C2(O)CCC(F)(F)CC2)noc1C1CC1` (stereo partly specified) [US12404295, Example 2.44.131.]: 110 nM; `Cc1nc(C(S[C@@H]2O[C@H](CO)[C@H](O)[C@H](n3cc(-c4cc(F)c(F)c(F)c4)nn3)[C@H]2O)C(C)(C)O)c(C)s1` (stereo partly specified) [US12404295, Example 2.31.123.]: 550 nM; `Cc1nc([C@@H](S[C@@H]2O[C@H](CO)[C@H](O)[C@H](n3cc(-c4cc(F)c(F)c(F)c4)nn3)[C@H]2O)C(C)(C)O)c(C)s1` [US12404295, Example 2.31.123R.]: 280 nM.
On to `Cc1nc([C@H](S[C@@H]2O[C@H](CO)[C@H](O)[C@H](n3cc(-c4cc(F)c(F)c(F)c4)nn3)[C@H]2O)C(C)(C)O)c(C)s1` [US12404295, Example 2.31.123S.], for which the half-inhibitory concentration (IC50) was 4700 nM.
As for `OC[C@H]1O[C@@H](S[C@H](c2cccc(Cl)c2Cl)C2(O)CCC(F)(F)CC2)[C@H](O)[C@@H](n2cc(-c3cc(F)c(F)c(F)c3)nn2)[C@H]1O` [US12404295, Example 2.44.113R.], the concentration for half-maximal inhibition (IC50) is 800 nM.
Compound `Cc1ccccc1[C@@H](S[C@@H]1O[C@H](CO)[C@H](O)[C@H](n2cc(-c3cc(F)c(F)c(F)c3)nn2)[C@H]1O)[C@]1(O)CCOC(C)(C)C1` [US12404295, Example 2.43.112RS.] came in with an IC50 of 130 nM.
As to `OC[C@H]1O[C@@H](SC(c2cccc(Cl)c2Cl)C2(O)CCC(F)(F)CC2)[C@H](O)[C@@H](n2cc(-c3cc(F)c(F)c(F)c3)nn2)[C@H]1O` (stereo partly specified) [US12404295, Example 2.44.113.], the IC50 was 360 nM. This IC50 is about 2.8-fold higher than that of the compound before.
Next, `CC1(C)C[C@](O)([C@H](S[C@@H]2O[C@H](CO)[C@H](O)[C@H](n3cc(-c4cc(F)c(F)c(F)c4)nn3)[C@H]2O)c2ccccc2C(F)(F)F)CCO1` [US12404295, Example 2.43.102RS.]: 40 nM; `CO[C@@H]1[C@@H](n2cc(-c3cc(F)c(F)c(F)c3)nn2)[C@@H](O)[C@@H](CO)O[C@H]1S[C@H](c1ncccc1C)[C@]1(O)CCOC(C)(C)C1` [US12404295, Example 2.43.126RS.I.]: 40 nM.
The value for `Cc1ccccc1[C@H](S[C@@H]1O[C@H](CO)[C@H](O)[C@H](n2cc(-c3cc(F)c(F)c(F)c3)nn2)[C@H]1O)[C@]1(O)CCOC(C)(C)C1` [US12404295, Example 2.43.112SS.] was 7300 nM; that for `CC1(C)CC(O)([C@@H](S[C@@H]2O[C@H](CO)[C@H](O)[C@H](n3cc(-c4cc(F)c(F)c(F)c4)nn3)[C@H]2O)c2ccccc2C(F)(F)F)CC(C)(C)O1` [US12404295, Example 2.42.102S.] was 7820 nM.
The value for `Cc1ccccc1[C@@H](S[C@@H]1O[C@H](CO)[C@H](O)[C@H](n2cc(-c3cc(F)c(F)c(F)c3)nn2)[C@H]1O)[C@@]1(O)CCOC(C)(C)C1` [US12404295, Example 2.43.112RR.] was 1500 nM.
